# Results published in publication PMC7901646, “Pyrrolo[2′,3′:3,4]cyclohepta[1,2-d][1,2]oxazoles, a New Class of Antimitotic Agents Active against Multiple Malignant Cell Types” (Journal of Medicinal Chemistry, 2020).
# Where two headings read alike, the source gives them in different places.
# Experiments:
# [1] = tested on: NCI-60 panel of human cancer cell lines; assay: NCI in vitro human tumor cell line screening, full panel; assay type: cell-based; settings: full NCI panel; for GI50: five concentrations 10^–4–10^–8 M, read-out: GI50 (concentration that inhibits 50% net cell growth), range over panel; for MG_MID (mean graph midpoint): arithmetic mean for all tested cancer cell lines
# From the text: (§1) on the full NCI-60 panel comprising cancer cell lines derived from nine human cancer cell types (leukemia, non-small-cell lung, colon, central nervous system, melanoma, ovarian, renal, prostate, and breast).[50]
# SNB-75 = assay: NCI-60 screen; assay type: cell-based; settings: Homo sapiens, CNS Cancer
# Description: as §1, with “All the synthesized compounds 51–76 were tested at a 10^–5 M concentration for their antitumor activity on the” for “on the”
# MALME-3M = assay: NCI-60 screen; assay type: cell-based; settings: Homo sapiens, Melanoma
# Description: as §1, with “All the synthesized compounds 51–76 were tested at a 10^–5 M concentration for their antitumor activity on the” for “on the”
# HCC-2998 = assay: NCI-60 screen; assay type: cell-based; settings: Homo sapiens, Colon Cancer
# Description: as §1, with “All the synthesized compounds 51–76 were tested at a 10^–5 M concentration for their antitumor activity on the” for “on the”
# 786–0 = assay: NCI-60 screen; assay type: cell-based; settings: Homo sapiens, Renal Cancer
# Description: as §1, with “All the synthesized compounds 51–76 were tested at a 10^–5 M concentration for their antitumor activity on the” for “on the”
# OVCAR-4 = assay: NCI-60 screen; assay type: cell-based; settings: Homo sapiens, Ovarian Cancer
# Description: as §1, with “All the synthesized compounds 51–76 were tested at a 10^–5 M concentration for their antitumor activity on the” for “on the”
# SF-539 = assay: NCI-60 screen; assay type: cell-based; settings: Homo sapiens, CNS Cancer
# Description: as §1, with “All the synthesized compounds 51–76 were tested at a 10^–5 M concentration for their antitumor activity on the” for “on the”
# UO-31 = assay: NCI-60 screen; assay type: cell-based; settings: Homo sapiens, Renal Cancer
# Description: as §1, with “All the synthesized compounds 51–76 were tested at a 10^–5 M concentration for their antitumor activity on the” for “on the”
# ACHN = assay: NCI-60 screen; assay type: cell-based; settings: Homo sapiens, Renal Cancer
# Description: as §1, with “All the synthesized compounds 51–76 were tested at a 10^–5 M concentration for their antitumor activity on the” for “on the”
# OVCAR-5 = assay: NCI-60 screen; assay type: cell-based; settings: Homo sapiens, Ovarian Cancer
# Description: as §1, with “All the synthesized compounds 51–76 were tested at a 10^–5 M concentration for their antitumor activity on the” for “on the”
# A549/ATCC = assay: NCI-60 screen; assay type: cell-based; settings: Homo sapiens, Non-Small-Cell Lung Cancer
# Description: as §1, with “All the synthesized compounds 51–76 were tested at a 10^–5 M concentration for their antitumor activity on the” for “on the”
# A498 = assay: NCI-60 screen; assay type: cell-based; settings: Homo sapiens, Renal Cancer
# Description: as §1, with “All the synthesized compounds 51–76 were tested at a 10^–5 M concentration for their antitumor activity on the” for “on the”
# CCRF-CEM = assay: NCI-60 screen; assay type: cell-based; settings: Homo sapiens, Leukemia
# Description: as §1, with “All the synthesized compounds 51–76 were tested at a 10^–5 M concentration for their antitumor activity on the” for “on the”
# OVCAR-8 = assay: NCI-60 screen; assay type: cell-based; settings: Homo sapiens, Ovarian Cancer
# Description: as §1, with “All the synthesized compounds 51–76 were tested at a 10^–5 M concentration for their antitumor activity on the” for “on the”
# T-47D = assay: NCI-60 screen; assay type: cell-based; settings: Homo sapiens, T47D; Breast Cancer
# Description: as §1, with “All the synthesized compounds 51–76 were tested at a 10^–5 M concentration for their antitumor activity on the” for “on the”
# HOP-62 = assay: NCI-60 screen; assay type: cell-based; settings: Homo sapiens, Non-Small-Cell Lung Cancer
# Description: as §1, with “All the synthesized compounds 51–76 were tested at a 10^–5 M concentration for their antitumor activity on the” for “on the”
# SK-MEL-2 = assay: NCI-60 screen; assay type: cell-based; settings: Homo sapiens, Melanoma
# Description: as §1, with “All the synthesized compounds 51–76 were tested at a 10^–5 M concentration for their antitumor activity on the” for “on the”
# SN12C = assay: NCI-60 screen; assay type: cell-based; settings: Homo sapiens, Renal Cancer
# Description: as §1, with “All the synthesized compounds 51–76 were tested at a 10^–5 M concentration for their antitumor activity on the” for “on the”
# HS 578T = assay: NCI-60 screen; assay type: cell-based; settings: Homo sapiens, Breast Cancer
# Description: as §1, with “All the synthesized compounds 51–76 were tested at a 10^–5 M concentration for their antitumor activity on the” for “on the”
# SK-MEL-5 = assay: NCI-60 screen; assay type: cell-based; settings: Homo sapiens, Melanoma
# Description: as §1, with “All the synthesized compounds 51–76 were tested at a 10^–5 M concentration for their antitumor activity on the” for “on the”
# NCI-H226 = assay: NCI-60 screen; assay type: cell-based; settings: Homo sapiens, Non-Small-Cell Lung Cancer
# Description: as §1, with “All the synthesized compounds 51–76 were tested at a 10^–5 M concentration for their antitumor activity on the” for “on the”
# HOP-92 = assay: NCI-60 screen; assay type: cell-based; settings: Homo sapiens, Non-Small-Cell Lung Cancer
# Description: as §1, with “All the synthesized compounds 51–76 were tested at a 10^–5 M concentration for their antitumor activity on the” for “on the”
# BT-549 = assay: NCI-60 screen; assay type: cell-based; settings: Homo sapiens, Breast Cancer
# Description: as §1, with “All the synthesized compounds 51–76 were tested at a 10^–5 M concentration for their antitumor activity on the” for “on the”
# DU-145 = assay: NCI-60 screen; assay type: cell-based; settings: Homo sapiens, Prostate Cancer
# Description: as §1, with “All the synthesized compounds 51–76 were tested at a 10^–5 M concentration for their antitumor activity on the” for “on the”
# MDA-MB-468 = assay: NCI-60 screen; assay type: cell-based; settings: Homo sapiens, Breast Cancer
# Description: as §1, with “All the synthesized compounds 51–76 were tested at a 10^–5 M concentration for their antitumor activity on the” for “on the”
# RXF 393 = assay: NCI-60 screen; assay type: cell-based; settings: Homo sapiens, Renal Cancer
# Description: as §1, with “All the synthesized compounds 51–76 were tested at a 10^–5 M concentration for their antitumor activity on the” for “on the”
# K-562 = assay: NCI-60 screen; assay type: cell-based; settings: Homo sapiens, K562; Leukemia
# Description: as §1, with “All the synthesized compounds 51–76 were tested at a 10^–5 M concentration for their antitumor activity on the” for “on the”
# SK-MEL-28 = assay: NCI-60 screen; assay type: cell-based; settings: Homo sapiens, Melanoma
# Description: as §1, with “All the synthesized compounds 51–76 were tested at a 10^–5 M concentration for their antitumor activity on the” for “on the”
# [2] = tested on: human peripheral blood lymphocytes stimulated with PHA; assay: Cytotoxicity in PHA-stimulated PBLs (MTT); assay type: cell-based; settings: Lymphocyte, 72 h, mean ± SEM, three experiments, read-out: GI50 PBLPHA
# Description: (§2) PBLs were obtained from human peripheral blood (leucocyte rich plasma-buffy coats) from healthy volunteers using the Lymphoprep (Fresenius KABI Norge AS) gradient density centrifugation.
# (§3) After extensive washing, cells were resuspended (1.0 × 10^6 cells/mL) in RPMI-1640 with 10% fetal bovine serum and incubated overnight. For cytotoxicity evaluations in proliferating PBL cultures, nonadherent cells were resuspended at 5 × 10^5 cells/mL in growth medium, containing 2.5 μg/mL PHA (Irvine Scientific). Different concentrations of the test compounds were added, and viability was determined 72 h later by the MTT test. For cytotoxicity evaluations in resting PBL cultures, nonadherent cells were resuspended (5 × 10^5 cells/mL) and treated for 72 h with the test compounds.
# [3] = tested on: human peripheral blood lymphocytes not stimulated with PHA; assay: Cytotoxicity in resting PBLs (MTT); assay type: cell-based; settings: Lymphocyte, 72 h, mean ± SEM, three experiments, read-out: GI50 PBLresting
# Description: as §2, §3
# bovine brain tubulin = bovine brain tubulin (Bos taurus, UniProt P81947+Q6B856); assay: Inhibition of tubulin assembly (turbidimetry); assay type: biochemical; settings: 9 μM (0.9 mg/mL) tubulin, 20 min at 30 °C; read-out: inhibition of tubulin assembly IC50 ± SD
# HeLa cells = assay: Flow cytometric cell cycle distribution; assay type: cell-based; settings: 24 h
# Description: To evaluate the effects of compounds 63, 66, and 75 on cell cycle progression, we first treated HeLa cells for 24 h.The cells were then labeled with propidium iodide (PI) and analyzed by flow cytometry. As shown in Figure 5 (panel B), compound 66 induced arrest of the cell cycle in the G2/M phase.
# 5 ×10^5 HeLa cells were treated with different concentrations of the test compounds for 24 h. After the incubation period, the cells were collected, centrifuged, and fixed with ice-cold ethanol (70%). The cells were treated with lysis buffer containing RNase A and 0.1% Triton X-100 and stained with PI. Samples were analyzed on a Cytomic FC500 flow cytometer (Beckman Coulter). DNA histograms were analyzed using MultiCycle for Windows (Phoenix Flow Systems).
# tubulin colchicine site = tubulin colchicine site (Bos taurus, UniProt P81947+Q6B856); assay: Inhibition of [3H]colchicine binding to tubulin; settings: read-out: inhibition of colchicine binding % inhibition ± SD
# Description: Reaction mixtures in the assembly assay contained 9 μM (0.9 mg/mL) tubulin in the assembly assay, and in the colchicine assay they contained 0.5 μM tubulin, 5.0 μM [^3H]colchicine, and 5.0 μM inhibitor.
# Analysis of effects on tubulin polymerization was performed by turbidimetry at 350 nm in recording spectrophotometers equipped with electronic temperature controllers as described in detail elsewhere.[71] […] The binding of [^3H]colchicine to tubulin was perfomed as described in detail previously[72] except that the tubulin concentration was reduced from 0.1 mg/mL to 0.05 mg/mL and only one, instead of two, DEAE-cellulose filter was used for each reaction mixture.
# NCI-H322M = assay: NCI-60 screen; assay type: cell-based; settings: Homo sapiens, Non-Small-Cell Lung Cancer
# Description: as §1, with “All the synthesized compounds 51–76 were tested at a 10^–5 M concentration for their antitumor activity on the” for “on the”
# NCI-H23 = assay: NCI-60 screen; assay type: cell-based; settings: Homo sapiens, Non-Small-Cell Lung Cancer
# Description: as §1, with “All the synthesized compounds 51–76 were tested at a 10^–5 M concentration for their antitumor activity on the” for “on the”
# U251 = assay: NCI-60 screen; assay type: cell-based; settings: Homo sapiens, U-251; CNS Cancer
# Description: as §1, with “All the synthesized compounds 51–76 were tested at a 10^–5 M concentration for their antitumor activity on the” for “on the”
# Chain of bovine brain tubulin (Q6B856 whole entry): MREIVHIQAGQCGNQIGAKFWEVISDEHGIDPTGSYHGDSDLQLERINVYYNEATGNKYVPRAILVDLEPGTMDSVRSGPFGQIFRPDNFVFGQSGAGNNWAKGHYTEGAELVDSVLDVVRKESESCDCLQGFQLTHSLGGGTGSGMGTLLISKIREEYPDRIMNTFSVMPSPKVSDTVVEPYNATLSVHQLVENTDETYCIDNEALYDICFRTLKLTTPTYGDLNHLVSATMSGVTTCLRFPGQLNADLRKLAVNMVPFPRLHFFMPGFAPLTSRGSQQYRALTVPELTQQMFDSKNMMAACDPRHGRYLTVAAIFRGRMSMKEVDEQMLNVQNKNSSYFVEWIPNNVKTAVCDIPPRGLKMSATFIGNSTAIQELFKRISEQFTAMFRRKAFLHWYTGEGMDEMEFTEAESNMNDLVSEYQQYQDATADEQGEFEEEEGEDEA
# Chain of bovine brain tubulin (P81947 whole entry): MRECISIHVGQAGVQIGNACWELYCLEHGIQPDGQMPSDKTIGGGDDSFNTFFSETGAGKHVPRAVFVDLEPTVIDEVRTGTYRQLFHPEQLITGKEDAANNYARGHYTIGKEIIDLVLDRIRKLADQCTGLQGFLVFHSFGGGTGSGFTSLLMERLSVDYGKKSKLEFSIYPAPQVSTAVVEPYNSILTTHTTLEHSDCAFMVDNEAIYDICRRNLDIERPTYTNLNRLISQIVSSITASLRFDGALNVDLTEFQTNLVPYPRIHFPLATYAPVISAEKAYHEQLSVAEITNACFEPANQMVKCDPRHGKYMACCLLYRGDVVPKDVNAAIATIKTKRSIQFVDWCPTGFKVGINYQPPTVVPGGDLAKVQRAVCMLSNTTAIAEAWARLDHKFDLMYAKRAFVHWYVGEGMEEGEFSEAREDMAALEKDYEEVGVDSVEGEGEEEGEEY
# Chain of tubulin colchicine site (Q6B856 whole entry): as the sequence (Q6B856 whole entry) above
# Chain of tubulin colchicine site (P81947 whole entry): as the sequence (P81947 whole entry) above
SMILES,MG_MID (mean graph midpoint) [1],GI50 (SNB-75),GI50 (MALME-3M),GI50 (786–0),GI50 (OVCAR-4),GI50 (SF-539),GI50 (UO-31),GI50 (ACHN),GI50 (A498),GI50 (CCRF-CEM),GI50 (OVCAR-8),GI50 (T-47D),GI50 (HOP-62),GI50 (SN12C),GI50 (HS 578T),GI50 (SK-MEL-5),GI50 (NCI-H226),GI50 (BT-549),GI50 (DU-145),GI50 (MDA-MB-468),also measured
"CCOC(=O)c1cc2c(n1Cc1cccc(OC)c1)-c1oncc1CCC2 [Compound 63, Ethyl 9-(3-Methoxybenzyl)-4,5,6,9-tetrahydropyrrolo[2′,3′:3,4]cyclohepta[1,2-d][1,2]oxazole-8-carboxylate]",1.45 µM,1600 nM,890 nM,6740 nM,18700 nM,1140 nM,3370 nM,3400 nM,440 nM,2170 nM,3130 nM,2000 nM,4340 nM,3510 nM,1600 nM,750 nM,21000 nM,980 nM,2180 nM,340 nM,GI50 ([1]; Homo sapiens): 150 to 18700 nM; GI50 (HCC-2998): 4180 nM; GI50 (OVCAR-5): 5940 nM; GI50 (A549/ATCC): 760 nM; GI50 (SK-MEL-2): 560 nM; GI50 (HOP-92): 4210 nM; GI50 (RXF 393): 670 nM; GI50 (K-562): 390 nM; GI50 (SK-MEL-28): 5120 nM; GI50 [2]: > 100000 nM; GI50 [3]: > 100000 nM; IC50 (bovine brain tubulin): 6300 ± 60 nM; concentration at which G2/M arrest first occurred (HeLa cells): 1 µM
"CCOC(=O)c1c(Cl)c2c(n1Cc1cc(OC)cc(OC)c1)-c1oncc1CCC2 [Compound 75, Ethyl 7-Chloro-9-(3,5-dimethoxybenzyl)-4,5,6,9-tetrahydropyrrolo[2′,3′:3,4]cyclohepta[1,2-d][1,2]oxazole-8-carboxylate]",0.41 µM,220 nM,200 nM,4240 nM,850 nM,240 nM,780 nM,940 nM,170 nM,250 nM,410 nM,440 nM,290 nM,830 nM,450 nM,490 nM,9710 nM,27000 nM,350 nM,730 nM,inhibition at 5 µM (tubulin colchicine site): 42 ± 5%; GI50 ([1]; Homo sapiens): 30 to 27000 nM; GI50 (NCI-H322M): 510 nM; GI50 (SK-MEL-2): 220 nM; GI50 (HOP-92): 460 nM; GI50 (RXF 393): 250 nM; GI50 (K-562): 290 nM; GI50 (NCI-H23): 680 nM; GI50 (SK-MEL-28): 660 nM; GI50 (U251): 310 nM; GI50 [2]: > 100000 nM; GI50 [3]: > 100000 nM; IC50 (bovine brain tubulin): 1900 ± 100 nM; concentration at which G2/M arrest first occurred (HeLa cells): 0.25 µM
"CCOC(=O)c1cc2c(n1Cc1cc(OC)c(OC)c(OC)c1)-c1oncc1CCC2 [Compound 67, Ethyl 9-(3,4,5-Trimethoxybenzyl)-4,5,6,9-tetrahydropyrrolo[2′,3′:3,4]cyclohepta[1,2-d][1,2]oxazole-8-carboxylate]",0.20 µM,70 nM,50 nM,970 nM,720 nM,120 nM,80 nM,290 nM,110 nM,300 nM,240 nM,100 nM,170 nM,760 nM,340 nM,170 nM,1210 nM,290 nM,280 nM,740 nM,inhibition at 5 µM (tubulin colchicine site): 25 ± 0.01%; GI50 [1]: 10 to 64900 nM; GI50 (NCI-H322M): 320 nM; GI50 (HCC-2998): 300 nM; GI50 (OVCAR-5): 530 nM; GI50 (RXF 393): 120 nM; GI50 (K-562): 130 nM; GI50 (NCI-H23): 370 nM; GI50 (SK-MEL-28): 300 nM; GI50 (U251): 140 nM; IC50 (bovine brain tubulin): 4600 ± 800 nM
